Experiments:
[1] = Shell wheel test (corrosion inhibition); conditions: 50 ppm of a 40% inhibitor solution; salt water/petroleum, pH 3.5, 40 rpm, 70° C., 24 hours; from mass reduction vs blank
Procedure: The compounds according to the invention were tested as corrosion inhibitors in the Shell wheel test. Coupons of carbon steel (DIN 1.1203 having 15 cm^2 surface area) were immersed in a salt water/petroleum mixture (9:1.5% NaCl solution, adjusted to pH 3.5 using acetic acid) and subjected to this medium at a rotation rate of 40 rpm at 70° C. for 24 hours. The dosage of the inhibitor was 50 ppm of a 40% solution of the inhibitor. The protection values were calculated from the mass reduction of the coupons, based on a blank value.
In the table which follows, “comparison 1” refers to a commercial residue amine, quat based on dicocoalkyldimethylammonium chloride and “comparison 2” to a commercial soya fatty acid amidopropyl-N,N-dimethylammonium carboxymethyl betaine described by EP-B-0 446 616 (prior art corrosion inhibitors).

[2] = LPR test (corrosion inhibition, conditions similar to ASTM D 2776); parameters: concentration or dose not given beside the values
Procedure: The products were also tested in the LPR test (test conditions similar to ASTM D 2776).

Substance	ø Protection % [1] [%]	Protection after 10 min [2] [%]	Protection after 30 min [2] [%]	Protection after 60 min [2] [%]
C14/15-oxo alcohol+7 EO-ether carboxamido-N,N-dimethylamino-N-propylammonium N-methylcarboxyl betaine [Example 34]	71.9			
lauryl+3 EO-ether carboxamido-N,N-dimethylamino-N-propylammonium N-methylcarboxyl betaine [Example 35]	75.9	74.4	80.2	84.3
oleyl+5 EO-ether carboxamido-N,N-dimethylamino-N-propylammonium N-methylcarboxyl betaine [Example 33]	70.7	75.6	80.3	82.8

Reference: patent US7323609B2, “Corrosion and gas hydrate inhibitors having improved water solubility and increased biodegradability” (Clariant Produkte (Deutschland) GmbH, priority 2003, dated 2008)
